These results are taken from US5948814A, “Genistein for the treatment of cystic fibrosis” (priority 1998, dated 1999).

Molecules are shown by their SMILES.

In one test the target is ΔF508-CFTR (Homo sapiens, UniProt P13569, DEL508-508). Description: Single-channel kinetics (dwell-time analysis), cell-attached patches. It is filed as cell-based. On the set-up: expressed in transfected cells; host or cells: NIH/3T3 cells, stably transfected (NIH/3T3-ΔF508, gift of Dr. Richard Mulligan). The method, then:
FIGS. 3A and B show recordings of the potentiation of wild-type (wt) and ΔF508-CFTR channel activity by genistein. Channels in cell-attached patches from NIH/3T3-CFTR (FIG. 3A) and NIH/3T3-ΔF508cells (FIG. 3B), were stimulated as indicated with 10 μM forskolin and 50μ genestein.
Electrophysiology: CFTR channel currents were recorded at room temperature (~22° C.) with a patch-clamp amplifier (EPC-9, Heka Electronic), filtered at 100 Hz with a built-in three-pole Bessel filter, and stored on videotapes. Data were subsequently refiltered at 25 Hz with an eight-pole Bessel filter (Frequency Device, Havervill, Mass.) and captured onto a hard disk at a sampling rate of 50 Hz. […] Patch-clamp electrodes were made from Corning 7052 glass capillaries (Warner Instrument, Hammed, Conn.). The pipette resistance was usually 3-5 M.OMEGA., and the seal resistance was >20 G.OMEGA.. The pipette solution contained (in mM) 140 N-methyl-D-glucamine chloride (NMDG-C1), 2 MgCl2, 5Ca Cl2, and 10 HEPES (pH 7.4 with NMDG). The superfusion solution contained (in mM) 150 […], 2 MgCl2, 1 EGTA, 5 glucose, and 5 HEPES (pH 7.4 with NaOH). In excised inside-out patch experiments, the bath solution contained (in mM) 130 MNDG-Cl, 10 EGTA, 10 HEPES, 20 tetraethylammonium chloride, 8 Tris, and 2 MgCl2 (pH 7.4 with NMDG). Pipette potential was held at 50 mV relative to the bath. Downward deflections represent channel opening.
Statistics: Mean currents and variance were estimated with Igor (Wavemetrics, Lake Oswego, Oreg.). Parameters for mean current-variance relationships and dose-response curves were obtained from least-square fitting with Sigmaplot (Jandel, San Rafael, Calif.). Po was calculated from patches containing a single channel by dividing the […]. Dwell-time analysis was described previously [Baukrowitz et al., 1994]. Calculated values are presented as means±SE. Comparisons among data were made using the Student's t-test with P<0.05 considered significant.
To determine how genistein increases Po, the effects of genistein on single-channel kinetics were examined in cell-attached patches using dwell-time analysis. […] Both traces were recorded in the presence of 10 μM forskolin; 50 μM genistein was added prior to the start of the lower trace. […] The mean open times for ΔF508-CFTR were also determined. However, since cell-attached patches containing a single ΔF508-CFTR channel were not observed, a direct assessment of the closed times for ΔF508-CFTR cannot be made. Dwell-time analysis of pooled open times were performed on 14 patches where individual openings of ΔF508-CFTR could be clearly identified.
Table 1. Values are means±SE.

The subject of test [1] is mock-transfected NIH/3T3 cells. Description: I- efflux, mock-transfected NIH/3T3 cells. It counts as cell-based. The protocol:
Cell culture: NIH/3T3-CFTR, NIH/3T3-ΔF508, and NIH/3T3 mock cells (generous gifts from Dr. Richard Mulligan of Children's Hospital and Medical Center, Harvard Medical School) were grown as described [Bradbury et al., 1992] at 37° C. and 5% CO2 in Dulbecco's modified Eagle's medium-H21 supplemented with 10% new-born calf serum, 4 mM glutamine, 25 mM glucose, 100 μg/ml penicillin, 100 μg/ml streptomycin, and 50 μg/ml gentamicin. Cells were maintained in T75 flasks, passaged at 90-95% confluency, and split one to four. For measurements of I^- efflux and in vivo phosphorylation, cells were seeded onto 35-mm dishes at […]. For patch-clamp experiments, cells were grown on coverglass chips in 35-mm culture dishes. Media were replaced 24 hours after plating and thereafter every 48 hours. In all cases, media were changed on the day before I^- efflux studies, NIH/3T3-ΔF508 cells were transferred to 27° C. three days before use, and 1 day prior to study, media were supplemented with 5 mM butyrate. For patch-clamp studies, where a constant level of functional ΔF508-CFTR was not essential, NIH/3T3-ΔF508 cells were cultured at 27° C. for 2-6 days before use. Calu-3 cells were grown and maintained as described by Hunter [1995].
I^- efflux: I^- efflux was measured as described previously [Reenstra et al., 1996]. Briefly, cells were incubated for 30 minutes with 37° C. I^- efflux buffer [(in mM) 141 NaCl, 4 KCl, 1 KH2 PO4, 0.9 MgCl2, 1.7 CaCl2. […] Extracellular ^125 I^- was removed by washing four times with efflux buffer, and the rate of loss of intracellular ^125 I^- was determined by replacing the bathing solution with 37° C. efflux buffer every 60 seconds for 12 minutes. Time-dependent rates of ^125 I^- efflux are calculated from R=ln(^125 I^-t1 /^125 I^-t2)/(t1-t2), where ^125 I^-t is the intracellular ^125 I^- at time t and t1 and t2 are successive time points. […]
To investigate effects of genistein on CFTR activity, the rates of I^- efflux were measured from stably transfected NIH/3T3 cells expressing wt- and ΔF508-CFTR (NIH/33-CFTR and NIH/3T3-ΔF508 cells, respectively). […]

Where [2] appears, read: Table 1, 10 μM forskolin + 50 μM genistein.

Chain of ΔF508-CFTR (P13569 with tags, fused parts or gaps DEL508-508): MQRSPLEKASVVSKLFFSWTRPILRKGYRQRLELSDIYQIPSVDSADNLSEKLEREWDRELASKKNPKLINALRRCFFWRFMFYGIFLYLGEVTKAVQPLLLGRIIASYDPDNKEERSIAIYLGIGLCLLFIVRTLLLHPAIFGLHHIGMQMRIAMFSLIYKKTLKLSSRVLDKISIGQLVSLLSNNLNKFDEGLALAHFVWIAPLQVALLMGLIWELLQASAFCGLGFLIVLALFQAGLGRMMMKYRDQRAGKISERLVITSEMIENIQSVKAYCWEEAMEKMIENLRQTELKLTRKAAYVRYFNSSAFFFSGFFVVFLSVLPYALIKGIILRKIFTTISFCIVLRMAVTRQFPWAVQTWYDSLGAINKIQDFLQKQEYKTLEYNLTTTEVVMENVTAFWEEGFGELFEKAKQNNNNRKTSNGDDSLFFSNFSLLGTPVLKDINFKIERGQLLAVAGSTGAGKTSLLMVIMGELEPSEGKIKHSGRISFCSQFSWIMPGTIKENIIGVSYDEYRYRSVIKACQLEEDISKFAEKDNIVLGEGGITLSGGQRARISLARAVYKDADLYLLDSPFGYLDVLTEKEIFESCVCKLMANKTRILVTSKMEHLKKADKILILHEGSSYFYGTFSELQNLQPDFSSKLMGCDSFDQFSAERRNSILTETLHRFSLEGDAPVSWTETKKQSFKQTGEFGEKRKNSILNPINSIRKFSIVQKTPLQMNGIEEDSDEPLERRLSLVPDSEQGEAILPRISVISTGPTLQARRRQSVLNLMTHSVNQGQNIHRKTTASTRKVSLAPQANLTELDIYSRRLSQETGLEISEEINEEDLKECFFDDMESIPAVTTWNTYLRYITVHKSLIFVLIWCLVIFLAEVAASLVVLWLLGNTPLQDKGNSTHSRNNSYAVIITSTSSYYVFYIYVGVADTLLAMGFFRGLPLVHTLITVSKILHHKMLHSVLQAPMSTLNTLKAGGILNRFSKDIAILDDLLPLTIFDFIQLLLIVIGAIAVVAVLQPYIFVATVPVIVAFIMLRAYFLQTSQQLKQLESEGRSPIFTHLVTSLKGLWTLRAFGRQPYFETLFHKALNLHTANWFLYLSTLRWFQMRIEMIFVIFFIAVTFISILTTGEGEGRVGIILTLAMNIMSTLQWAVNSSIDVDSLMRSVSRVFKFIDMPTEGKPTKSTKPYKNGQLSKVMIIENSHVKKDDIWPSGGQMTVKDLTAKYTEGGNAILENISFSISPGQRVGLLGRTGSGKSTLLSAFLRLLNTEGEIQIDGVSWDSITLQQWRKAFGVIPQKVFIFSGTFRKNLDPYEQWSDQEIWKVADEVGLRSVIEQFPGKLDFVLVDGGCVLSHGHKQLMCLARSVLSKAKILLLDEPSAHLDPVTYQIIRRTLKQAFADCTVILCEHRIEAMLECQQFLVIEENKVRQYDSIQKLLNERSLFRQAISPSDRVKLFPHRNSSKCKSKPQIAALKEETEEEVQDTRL

As to `O=c1c(-c2ccc(O)cc2)coc2cc(O)cc(O)c12` [Genistein, 4',5,7-trihydroxyisoflavone], the “increase of TO2 of forskolin-activated ΔF508-CFTR current by genistein” value at ΔF508-CFTR (10 μM forskolin) was “two-to threefold”. Moreover, on ΔF508-CFTR (setting [2]), the “TO1 (mean open time)” value is given as 0.31 ± 0.17. Besides, on ΔF508-CFTR (setting [2]), the “TO2 (long mean open time)” value is recorded as 2.63 ± 0.37. Besides, the “stimulation of I- efflux in mock cells” value in test [1] (50 μM genistein) is reported as “neither 1 μM forskolin, 50 μM genistein, nor 50 μM genistein plus 1 μM forskolin stimulated”; in test [1] (50 μM genistein plus 1 μM forskolin), “neither 1 μM forskolin, 50 μM genistein, nor 50 μM genistein plus 1 μM forskolin stimulated”.
Take `C=C[C@@]1(C)CC(=O)[C@]2(O)[C@@]3(C)[C@@H](O)CCC(C)(C)[C@@H]3[C@H](O)[C@H](OC(C)=O)[C@@]2(C)O1` [forskolin]: the “average long closing time” value at ΔF508-CFTR (10 μM forskolin alone, at least 5 channels in patch) was determined as 6.1 s. At ΔF508-CFTR (10 μM forskolin, from observed closed time and minimal number of channels), the “TO2 (so in the source), estimated” value was “about 30 seconds”. Besides, at ΔF508-CFTR (Table 1, 10 μM forskolin), the “TO1 (mean open time)” value is 0.30 ± 0.11 and the “TO2 (long mean open time)” value is 0.92 ± 0.12. Besides, the “TC2 (long mean closed time), estimation” value at ΔF508-CFTR (Table 1, 10 μM forskolin, estimated from observed closed time and minimum number of channels) was greater than 30. Also, in test [1] (1 μM forskolin), the “stimulation of I- efflux in mock cells” value is recorded as “neither 1 μM forskolin, 50 μM genistein, nor 50 μM genistein plus 1 μM forskolin stimulated”.
